The text below walks through data of US5846942A, “Cholecystokinin antagonists, their preparation and therapeutic use” (Warner-Lambert Company, priority 1996, dated 1998).

For this assay, the target named is T1, Central CCK Receptors (Mus musculus, UniProt P56481).
T1 construct: from tissue; host or cells: cerebral cortex membranes of male CFLP mice (30-40 g)
T1 sequence (P56481 1-453): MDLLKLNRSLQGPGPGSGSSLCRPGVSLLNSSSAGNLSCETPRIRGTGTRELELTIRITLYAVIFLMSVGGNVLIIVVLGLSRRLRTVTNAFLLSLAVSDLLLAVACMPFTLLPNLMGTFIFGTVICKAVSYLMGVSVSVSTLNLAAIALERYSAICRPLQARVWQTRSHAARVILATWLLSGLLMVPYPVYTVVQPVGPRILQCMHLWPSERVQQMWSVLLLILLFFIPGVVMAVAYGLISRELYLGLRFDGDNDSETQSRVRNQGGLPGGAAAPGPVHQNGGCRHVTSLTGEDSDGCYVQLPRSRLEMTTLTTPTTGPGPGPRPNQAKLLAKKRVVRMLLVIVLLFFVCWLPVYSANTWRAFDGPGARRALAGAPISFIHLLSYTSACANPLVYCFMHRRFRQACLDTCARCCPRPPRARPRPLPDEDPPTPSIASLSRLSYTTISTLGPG
The assay is described as follows: Binding to central CCK receptors, displacement of tritiated pentagastrin from cerebral cortical membranes of male CFLP mice. To be noted: cerebral cortexes taken from male CFLP mice; 2 nM tritiated-pentagastrin. Also on record: species or system mouse (male CFLP). How it is done:
The biological activity of compounds of the present invention was evaluated employing an initial screening test which rapidly and accurately measured the binding of the tested compound to known CCK receptor sites. […] (See Hays et al, Neuropeptides 1:53-62, 1980; and Satuer et al, Science 208:1155-1156, 1980).
In this screening test, the cerebral cortices taken from male CFLP mice weighing between 30-40 g were dissected on ice, weighed, and homogenized in 10 volumes of 50 mM Tris-HCl buffer (pH 7.4 at 0°-4° C.). The resulting suspension was centrifuged, the supernate was discarded, and the pellet was washed by resuspension in Tris-HCl buffer followed by recentrifugation. The final pellet was resuspended in 20 volumes of […] Hepes buffer (pH 7.2 at 23° C.) containing 130 mM NaCl, […] KCl, […] MgCl2, […] EDTA, 5 mg/mL bovine albumin, and bacitracin (0.25 mg/mL).
In saturation studies, cerebral cortical membranes were incubated at 23° C. for 120 minutes in a final volume of 500 μL of Hepes incubation buffer (pH 7.2) together with […] tritiated-pentagastrin (Amersham International, England).
In the displacement experiments, membranes were incubated with a single concentration (2 nM) of ligand, together with increasing concentrations (10^-11 to […]) of competitive test compound. In each case, the nonspecific binding was defined as that persisting in the presence of the unlabeled octapeptide CCK26-33 (10^-6 M)
Following incubation, radioactivity bound to membranes was separated from that free in solution by rapid filtration through Whatman GF/B filters and washed three times with 4 mL of ice cold Tris-HCl buffer. Filters from samples incubated with tritiated-pentagastrin were placed in polyethylene vials with 4 mL of scintillation cocktail, and the radioactivity was estimated by liquid scintillation spectrometry (efficiency 47-52%).
Saturation curves for specific tritiated- pentagastrin binding to mouse cortical membranes were analyzed by the methods of Scatchard (Ann. New York Acad. Sci. 51:660-672, 1949, and Hill (J. Physiol. 40:IV-VIII, 1910), to provide estimates for the maximum number of binding sites (Bmax) and the equilibrium dissociation constant (Ka).
In displacement experiments, inhibition curves were analyzed by either logit-log plots or the iterative curve fitting computer program ALLFIT (DeLean, Munson and Redbard, 1978) to provide estimates of the IC50 and nH (apparent Hill coefficient) values).
The inhibition constant (Ki) of the test compound was then calculated according to the Cheng-Prusoff equation: [formula] where [L] is the concentration of radiolabel and Ka is the equilibrium dissociation constant.
Regarding `C[C@](Cc1c[nH]c2ccccc12)(NC(=O)OC1C2CC3CC(C2)CC1C3)C(=O)NCCC(=O)N[C@@H](Cc1ccccc1)C(=O)O` (stereo partly drawn) [Example 33, S-Phenylalanine N-[N-[α-methyl-N-[(tricyclo-[3.3.1.1^3,7]dec-2-yloxy)carbonyl]-R-tryptophyl]-β-alanyl]], the Ki came out at 22 nM. To `C[C@@](Cc1c[nH]c2ccccc12)(NC(=O)OC1C2CC3CC(C2)CC1C3)C(=O)NCCC(=O)N[C@@H](Cc1ccccc1)C(=O)O` (stereo partly drawn) [Example 34, L-Phenylalanine, N-[N-[α-methyl-N-[(tricyclo-[3.3.1.1^3,7]dec-2-yloxy)carbonyl]-L-tryptophyl]-β-alanyl]-] belongs 560 nM.

`C[C@@](Cc1c[nH]c2ccccc12)(NC(=O)OC1C2CC3CC(C2)CC1C3)C(=O)NCCC(=O)N[C@H](Cc1ccccc1)C(=O)O` (stereo partly drawn) [Example 35, Benzenepropanoic acid, α-[[3-[[3-[(1H-indol-3-yl)-2-methyl-1-oxo-2-[[(tricyclo[3.3.1.1^3,7]dec-2-yloxy)-carbonyl]amino]propyl]amino]-1-oxopropyllamino-, [S-(R*,S*)]-]: affinity was put at a Ki of 540 nM. Take `C[C@](Cc1c[nH]c2ccccc12)(NC(=O)OC1C2CC3CC(C2)CC1C3)C(=O)NCC(=O)OCc1ccccc1` (some centres unmarked) [Example 36]: the affinity, expressed as Ki, was 50 nM. In turn, `CC(CNC(=O)O[C@@H]1C[C@@H]2CC[C@@]1(C)C2(C)C)(Cc1c[nH]c2ccccc12)C(=O)N[C@H](COC(=O)CCC(=O)O)Cc1ccccc1` (stereo partly drawn) [Example 56, Butanedioic acid, mono 2-[[2-(1H-indol-3-ylmethyl)-2-methyl-1-oxo-3-[[(1,7,7-trimethylbicyclo[2.2.1]hept-2-yloxy)carbonyl]-amino]propyl]amino]-3-phenylpropyl ester (Bicyclo system is 1S-endo, phenvlmethyl center is S. other center is RS)] returned a Ki of 23 nM.

In the case of `CC(CNC(=O)OC1C2CC3CC(C2)CC1C3)(Cc1c[nH]c2ccccc12)C(=O)N[C@H](COC(=O)CCC(=O)O)Cc1ccccc1` (some centres unmarked) [Example 57], the affinity corresponds to a Ki of 93 nM. To `N#CC(=Cc1c[nH]c2ccccc12)C(=O)NCCc1ccccc1` [Example 58] belongs 110 nM.

As for `C[C@](CC(=O)N[C@H](C(=O)O)c1ccccc1)(Cc1c[nH]c2ccccc12)NC(=O)OC1C2CC3CC(C2)CC1C3` (stereo partly drawn) [Example 90, N-[D-3-(1H-indol-3-ylmethyl)-3-methyl-N-[(tricyclo [3.3.1.1^3,7]dec-2-yloxy)carbonyl]-β-alanyl]-L-2-phenylglycine], the Ki is 942 nM.

As to `C[C@](Cc1c[nH]c2ccccc12)(NC(=O)OC1C2CC3CC(C2)CC1C3)C(=O)N[C@H](C(=O)O)c1ccccc1` (stereo partly drawn) [Example 91, [R-(R*,S)]-α-[[3-(1H-indol-3-yl)-2-methyl-1-oxo-2-[[(tricyclo[3.3.1.1^3,7]dec-2-yloxy)carbonyl]amino]proipyl]amino]benzeneacetic acid, [R-(R*,S*)]-], the affinity, expressed as Ki, was 110 nM. Take `COC[C@@H]1CCCN1NC(=O)[C@@](C)(Cc1c[nH]c2ccccc12)NC(=O)OC1C2CC3CC(C2)CC1C3` (stereo partly drawn) [Example 112, Tricyclo[3.3.1.1^3.7]dec-2-yl ester [2S-(R*,S*)1 N-[1-(1H-indol-3-ylmethyl)-2-[[2-(methoxymethyl)-1-pyrrolidinyl]amino]-1-methyl-2-oxoethyl]carbamate]: the affinity, expressed as Ki, was 73 nM. Consider `COC[C@H]1CCCN1NC(=O)[C@@](C)(Cc1c[nH]c2ccccc12)NC(=O)OC1C2CC3CC(C2)CC1C3` (stereo partly drawn) [Example 113, Tricyclo [3.3.1.1^3,7]dec-2-yl [R-(R*,R*)]-[-(1H-indol-3-ylmethyl)-2-[[2-(methoxymethyl)-1-pyrrolidinyl]amino]-1-methyl-2-oxoethyl]carbamate], for which the affinity corresponds to a Ki of 2.5 nM. For `C[C@](Cc1c[nH]c2ccccc12)(NC(=O)OC1C2CC3CC(C2)CC1C3)C(=O)NC1CCCCC1C(=O)O` (stereo partly drawn) [Example 115, [1S-[α(S*),2B]] and [1R-[α(R*),28β]]^sP 2-[[3-(1H-indol-3-yl)-2-methyl-1-oxo-2-[(tricyclo[3.3.1.1^3,7]dec-2-yloxy)carbonyl]amino]propyl]amino]cyclhexanecarboxylic acid], the affinity, expressed as Ki, was 1 nM. The compound `C[C@](Cc1c[nH]c2ccccc12)(NC(=O)OC1C2CC3CC(C2)CC1C3)C(=O)NC1CCCCC1C#N` (some centres unmarked) [Example 116, Carbamic acid [2-[(2-cyanocyclohexyl)amino]-1-(1H-indol-3-ylmethyl)-1-methyl-2-oxoethyl]-1H-tricyclo-[3.3.1.1^3,7]dec-2-yl ester] displayed a Ki of 3.5 nM. For the compound `CC1CCCCC1NC(=O)C(C)(Cc1c[nH]c2ccccc12)NC(=O)OC1C2CC3CC(C2)CC1C3` (centres unmarked) [Example 117, Tricyclo[3.3.1.1^3,7]dec-2-yl ester[1-(1H-indol-3-ylmethyl)-1-methyl-2[(2-methylcyclohexyl)amino]-2-oxoethyl]carbamate], the Ki amounted to 39 nM. To `C[C@](Cc1c[nH]c2ccccc12)(NC(=O)OC1C2CC3CC(C2)CC1C3)C(=O)NC1CC2CCC1C2` (some centres unmarked) [Example 118, Tricyclo[3.3.1.1^3,7]dec-2yl ester [2-(bicyclo[2.2.1]hept-2-ylamino)-1-(1H-indol-3-ylmethyl)-1-methyl-2-oxoethyl]carbamate] belongs 53 nM. As for `C[C@](Cc1c[nH]c2ccccc12)(NC(=O)OC1C2CC3CC(C2)CC1C3)C(=O)NC1(CO)CCCC1` (stereo partly drawn) [Example 119, Tricyclo[3.3.1.1^3,7]dec-2-yl ester (R) [2-[[1-(hydroxymethyl)cyclopentyl]amino]-1-(1H-indol-3-ylmethyl)-1-methyl-2-oxoethyl]carbamate], the Ki was 180 nM. To `C[C@](Cc1c[nH]c2ccccc12)(NC(=O)OC1C2CC3CC(C2)CC1C3)C(=O)NC1(C(=O)O)CCCCC1` (stereo partly drawn) [Example 120, (R)-1-[[2-(1H-indol-3-ylmethyl)-2-methyl-1-oxo-2-[[(tricyclo[3.3.1.1^3,7]dec-2-yloxy)carbonyl]amino]ethyl]amino]cyclohexanoic acid] belongs 40 nM; to `CC(Cc1c[nH]c2ccccc12)(NC(=O)OC1C2CC3CC(C2)CC1C3)C(=O)NC1CCCCC1C(=O)O` (centres unmarked) [Example 121, 2-[[3-(1H-indol-3-yl)-2-methyl-1-oxo-2-[[(tricyclo-[3.3.1.1^3,7]dec-2-yloxy)carbonyl]amino]propyl]amino]cyclohexanecarboxylic acid], 2 nM; to `C[C@](Cc1c[nH]c2ccccc12)(NC(=O)OC1C2CC3CC(C2)CC1C3)C(=O)NC1(CO)CCCCC1` (some centres unmarked) [Example 122], 59 nM. To `CNC(=O)C1CCCCC1NC(=O)[C@@](C)(Cc1c[nH]c2ccccc12)NC(=O)OC1C2CC3CC(C2)CC1C3` (some centres unmarked) [Example 123] belongs 17 nM.
